Source: publication PMC5541792, “Simultaneous Determination of 11 Compounds in Gualou Guizhi Granule and Pharmacokinetics Study by UPLC-MS/MS” (Journal of Analytical Methods in Chemistry, 2017)

Legend:
[1] = Stability of analytes in rat plasma samples (method validation); assay type: in vitro ADME; details: n = 6; for Autosampler stability (24 h) Mean: 4°C for 24 h; for Stability (24 h at room temperature) Mean: 25°C for 24 h; for Freeze-thaw stability (3 cycles) Mean: three freeze-thaw cycles at −80°C
Procedure: Stability of the analytes from plasma samples was performed by determining three different concentrations (low, middle, and high samples) in six replicates under different conditions. It included short-term stability which was assessed by keeping samples at room temperature (25°C) for 24 h, stability which was measured using samples stored at 4°C for 24 h, and freeze-thaw stability that was determined after three freeze-thaw cycles at −80°C.

[2] = Pharmacokinetic study in rats after oral administration of GLGZG (UPLC-MS/MS of plasma); assay type: in vivo, rat; details: for AUC(0–∞) / Tmax / MRT inf / half-life / Vd/F: rat plasma, male SD rats, oral GLGZG 3.6 g·(kg·day)^−1, n = 6; for MRT inf: read-out: MRT(0–∞) (converted); for half-life: read-out: T 1/2z; for Vd/F: read-out: Vz/F; for Plasma concentration-time behaviour (in words): rat plasma after oral GLGZG
Procedure: Chromatographic separation was performed on an Waters CORTECS C18 (2.1 × 100 mm, 1.6 μm) with the column temperature at 45°C. The mobile phase was composed of 0.1% formic acid in water (A) and acetonitrile (B) with a gradient program (0–0.5 min from 8% to 10% B; 0.5–2.5 min from 10% to 15% B; 2.5–4.0 min from 15% to 60% B; 4.0–5.0 min from 60% to 95% B; 5.0–6.5 min 95% B). The flow rate was 0.25 mL/min and the injection volume was 1 μL.
Mass spectrometry was operated using a Waters (Milford, MA) Xevo TQMS with an electrospray ion source (ESI) in the negative ion multiple reaction monitoring (MRM) mode. The other detailed MS parameters were as follows: drying gas: N2 (purity of 99.9%), 15 L/min, nebulizing gas: 50 L/min, capillary voltage: 2.5 kv.
Plasma samples (100 μL of plasma) and IS working solutions (10 μL of swertiamarin, kaempferol-3-O-rutinoside, and ginsenoside Rb1) were combined and briefly vortex-mixed for 3 min followed by the addition of 4-fold acetonitrile. Then the mixture was centrifuged at 12000 rpm for 10 min. The supernatant was transferred to a clean tube and concentrated up to dryness; the residue was dissolved in 100 μL 50% methanol. Finally, 1 μL aliquot was injected into UPLC-MS/MS system for analysis.
Six male SD rats, weighing 250 ± 20 g, were provided by Experimental Animal Research Center of Fujian TCM University (Fuzhou, China). And they were housed at controlled environmental conditions (temperature: 23 ± 2°C, relative humidity: 55 ± 10%) with free access to standard laboratory food and water. The rats were fasted for 12 h but with access to water before being given GLGZG (3.6 g·(kg·day)^−1). Blood samples of 0.3 mL were collected in heparin containing tubes from epicanthic veins of rats by capillary tube before dose (0 h) and at 5 min, 10 min, 20 min, 0.5 h, 1 h, 1.5 h, 2 h, 3 h, 6 h, 9 h, and 12 h. Then they were centrifuged at 12000 rpm for 10 min. The supernatant liquor was collected and frozen at −20°C until use.
The validated UPLC-MS/MS method was successfully applied to the PK studies of eleven analytes following oral administration of GLGZG to individual male rats (n = 6). The main pharmacokinetic parameters were summarized in Table 8 and the mean plasma concentration-time profiles of the eleven analytes were illustrated in Figure 3.

[3] = middle QC nominal concentration

Structure (SMILES) | Autosampler stability (24 h) Mean ([1]; high QC nominal concentration) [%] | Autosampler stability (24 h) Mean ([1]; low QC nominal concentration) [%] | Autosampler stability (24 h) Mean [1, 3] [%] | Stability (24 h at room temperature) Mean ([1]; high QC nominal concentration) [%] | Stability (24 h at room temperature) Mean ([1]; low QC nominal concentration) [%] | Stability (24 h at room temperature) Mean [1, 3] [%] | Freeze-thaw stability (3 cycles) Mean ([1]; high QC nominal concentration) [%] | Freeze-thaw stability (3 cycles) Mean ([1]; low QC nominal concentration) [%] | Freeze-thaw stability (3 cycles) Mean [1, 3] [%] | AUC(0–∞) [2] [mg·L/min] | Tmax [2] [h] | MRT inf [2] [h] | half-life [2] [h] | Vd/F [2] [L/kg] | Plasma concentration-time behaviour (in words) [2]
CC12CC(O)C3CC1(OC1OC(CO)C(O)C(O)C1O)C3(COC(=O)c1ccccc1)C(=O)O2 (stereo not drawn) [Albiflorin, albiflorin] | 107.72 | 97.93 | 111.49 | 108.45 | 94.78 | 93.66 | 98.89 | 99.77 | 108.14 | 1263.37 ± 306.91 | 1 | 3.59 | 2.13 ± 0.596 | 2.67 ± 0.87 | –
CC1(C)[C@@H](O)CC[C@]2(C)[C@H]3C(=O)C=C4[C@@H]5C[C@@](C)(C(=O)O)CC[C@]5(C)CC[C@@]4(C)[C@]3(C)CC[C@@H]12 [Glycyrrhetinic acid, glycyrrhetinic acid] | – | – | – | – | – | – | – | – | – | 2041.10 ± 706.58 | 10 | 11.8 | 2.2 ± 0.472 | – | –
CC1(C)[C@@H](O[C@H]2O[C@H](C(=O)O)[C@@H](O)[C@H](O)[C@H]2O[C@@H]2O[C@H](C(=O)O)[C@@H](O)[C@H](O)[C@H]2O)CC[C@]2(C)[C@H]3C(=O)C=C4[C@@H]5C[C@@](C)(C(=O)O)CC[C@]5(C)CC[C@@]4(C)[C@]3(C)CC[C@@H]12 [Glycyrrhizic acid, glycyrrhizic acid] | – | 97.71 | 92.82 | 94.94 | 96.05 | 92.18 | 98.20 | 98.31 | 108.78 | 1262.61 ± 158.73 | 0.9 | 4.4 | 2.86 ± 0.561 | 3.92 ± 1.44 | double-peak phenomenon
O=C(/C=C/c1ccc(O)cc1)c1ccc(O)cc1O [Isoliquiritigenin, isoliquiritigenin] | 108.30 | 106.19 | 91.71 | – | 99.77 | 93.66 | 109.21 | 99.28 | 107.70 | 8.52 ± 0.98 | 0.5 | 4.76 | 3.4 ± 0.675 | 700 ± 187 | low in the blood
O=C(/C=C/c1ccc(O[C@@H]2O[C@H](CO)[C@@H](O)[C@H](O)[C@H]2O)cc1)c1ccc(O)cc1O [Isoliquiritin, isoliquiritin] | 95.62 | – | 97.14 | – | – | 99.28 | 108.88 | 98.98 | 94.03 | 27.17 ± 2.69 | 0.472 | 5.66 | 4.6 ± 0.866 | 297 ± 70 | –
O=C1C[C@@H](c2ccc(O)cc2)Oc2cc(O)ccc21 [Liquiritigenin, liquiritigenin] | 97.16 | 98.45 | 93.53 | 97.03 | – | – | – | – | – | 20.38 ± 4.30 | 0.445 | 4.92 | 3.87 ± 0.477 | 341 ± 73.6 | –
O=C1C[C@@H](c2ccc(O[C@@H]3O[C@H](CO)[C@@H](O)[C@H](O)[C@H]3O)cc2)Oc2cc(O)ccc21 [Liquiritin, liquiritin] | 90.84 | – | 92.30 | 106.73 | 95.70 | – | 97.91 | 101.75 | 109.75 | 54.87 ± 14.40 | – | 5.93 | 5.16 ± 1.11 | 167 ± 35.9 | –
C[C@@]12C[C@@]3(O)O[C@@H](O1)[C@]1(COC(=O)c4ccccc4)[C@H]3C[C@@]12O[C@@H]1O[C@H](CO)[C@@H](O)[C@H](O)[C@H]1O [Paeoniflorin, paeoniflorin] | 113.81 | 103.46 | 98.29 | 109.75 | 105.66 | 91.25 | – | 97.71 | 92.82 | 904.73 ± 317.76 | 1.33 | 3.93 | 2.38 ± 0.502 | 6.31 ± 1.63 | –
